{
  "source": "patent US8377990B2",
  "about": "“Conjugates comprising a psychotropic drug or a GABA agonist and an organic acid and their use in treating pain and other CNS disorders” (Ramot at Tel-Aviv University Ltd., priority 2006, dated 2013)",
  "key": {"Male Balb-c mice": {"system": "Male Balb-c mice", "experiment": "Hot plate test, latency of the nociceptive reaction to heat", "assay_type": "in vivo", "conditions": "for antinociceptive activity (latency to heat): entire period"}, "Wistar rats": {"system": "Wistar rats", "conditions": "high doses of fluoxetine; Omar et al. Pharmacol. Res. 49 (2004) 119-131; cited from earlier work"}, "[1]": {"conditions": "treated orally for 5 consecutive days, AN-214 0.2 mg/kg or equivalent molar dose of AN-216, FIG. 7"}},
  "note": "Entries after “also recorded” stand apart in the source; their conditions may differ.",
  "data": [
    {"compound": "Cl.NCCCC(=O)OCOC(=O)CCCN", "note": "[AN-214, 4-Amino-butyric acid 4-amino-butyryloxymethyl ester dihydrochloride]", "values": [
      {"measurement": "antinociceptive activity (latency to heat)", "setting": "Male Balb-c mice; [1]", "value": "no antinociceptive activity was detected"}
    ]},
    {"compound": "CNCCC(Oc1ccc(C(F)(F)F)cc1)c1ccccc1", "note": "(centres unmarked) [fluoxetine]", "values": [
      {"measurement": "antinociceptive effect (latency to heat) during repeated treatment", "setting": "Male Balb-c mice; repeated oral treatment daily for 11 days, fluoxetine 10 mg/kg or equimolar conjugate, FIGS. 5B-E", "value": "significantly better antinociceptive effect compared to untreated animals"},
      {"measurement": "response to heat sensation prior to daily treatment", "setting": "Male Balb-c mice; repeated oral treatment daily for 11 days, fluoxetine 10 mg/kg or equimolar conjugate, tested at days 3, 7, 9 and 11, vs vehicle, FIG. 5A", "value": "A delay was noted only on day 11"},
      {"measurement": "oedema response in rats", "setting": "Wistar rats", "value": "previously shown to reduce oedema response in rats"}
    ]},
    {"compound": "2-Propyl-pentanoic acid (valproic acid) 4-aminobutyryloxymethyl ester hydrochloride [AN-216]", "values": [
      {"measurement": "antinociceptive activity (latency to heat)", "setting": "Male Balb-c mice; [1]", "value": "no antinociceptive activity was detected"}
    ]},
    {"compound": "NCCCC(=O)O", "note": "[GABA, γ-aminobutyric acid]", "values": [
      {"measurement": "latency in response to heat sensation", "setting": "Male Balb-c mice; GABA 2.39 mg/kg, >10-folds higher dose than the conjugate, FIG. 6", "value": "had no activity"},
      {"measurement": "antinociceptive activity (latency to heat)", "setting": "Male Balb-c mice; GABA orally for 5 consecutive days, three different doses, FIG. 8", "value": "No antinociceptive activity was detected"}
    ]},
    {"compound": "CNCCC=C1c2ccccc2CCc2ccccc21", "note": "[nortriptyline]", "values": [
      {"measurement": "latency of response to heat", "setting": "Male Balb-c mice; p.o. 0.25 mg/kg nortriptyline or equimolar conjugate (0.32 mg/kg), 4 hours following treatment, vs untreated mice, FIG. 2A", "value": "increased significantly the latency of response compared to untreated mice"},
      {"measurement": "latency of response to heat, onset", "setting": "Male Balb-c mice; p.o. 0.5 mg/kg nortriptyline, time course, vs vehicle, FIG. 2B", "value": "significant latency, (compared to vehicle treated animals), after 4 hours only"},
      {"measurement": "latency of response to heat", "setting": "Male Balb-c mice; single p.o. dose, 0.5 mg/kg nortriptyline or equimolar dose of conjugate, two hours after administration, FIG. 1, 0.5 mg/kg", "value": "significantly less effective; also recorded: did not differ significantly (p>0.05) from control mice"},
      {"measurement": "latency of response to heat", "setting": "Male Balb-c mice; single p.o. dose, 4.5 mg/kg nortriptyline or equimolar dose of conjugate, two hours after administration, vs vehicle, p<0.05, FIG. 1", "value": "significant delay in the response compared to control mice"}
    ]}
  ]
}
